# Measurements reported in ChEMBL document CHEMBL1212904, “Discovery of pyrrole-indoline-2-ones as Aurora kinase inhibitors with a different inhibition profile” (J Med Chem, 2010).
# How the values were obtained:
# Aurora kinase B [1] = target: T1, Aurora kinase B (Homo sapiens, UniProt Q96GD4); test: Inhibition of recombinant aurora B at 1 uM
# Aurora kinase B [2] = target: T1, Aurora kinase B; test: Inhibition of recombinant aurora B
# HCT-116 [3] = test: Antiproliferative activity against human HCT116 cells after 72 hrs by cell titer 96 assay; type: functional, cell-based; settings: HCT-116, 72 h
# HeLa = test: Antiproliferative activity against human HeLa cells after 72 hrs by cell titer 96 assay; type: functional, cell-based
# Aurora kinase A = target: T2, Aurora kinase A (Homo sapiens, UniProt O14965); test: Inhibition of recombinant aurora A
# T2 sequence (O14965 whole entry): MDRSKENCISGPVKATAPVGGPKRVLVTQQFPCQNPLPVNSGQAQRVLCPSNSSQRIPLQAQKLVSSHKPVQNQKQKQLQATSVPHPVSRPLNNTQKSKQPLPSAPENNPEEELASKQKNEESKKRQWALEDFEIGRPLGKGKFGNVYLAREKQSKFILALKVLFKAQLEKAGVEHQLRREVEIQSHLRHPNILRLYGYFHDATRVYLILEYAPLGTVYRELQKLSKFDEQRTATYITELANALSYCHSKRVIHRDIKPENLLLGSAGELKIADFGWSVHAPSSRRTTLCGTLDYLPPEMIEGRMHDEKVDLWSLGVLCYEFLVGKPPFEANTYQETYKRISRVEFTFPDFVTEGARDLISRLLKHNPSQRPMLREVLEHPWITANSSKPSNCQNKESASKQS
# HT-29 = test: Antiproliferative activity against human HT-29 cells after 72 hrs by cell titer 96 assay; type: functional, cell-based; settings: HT-29, 72 h
# [4] = target: T3, Aurora kinase A (Homo sapiens) (UniProt O14965); test: Inhibition of recombinant aurora A at 1 uM
# T3 sequence (whole entry): T2 sequence (O14965 whole entry)
# HCT-116 [5] = test: Antiproliferative activity against human HCT116 cells after 72 hrs by [3H]thymidine incorporation assay; type: functional, cell-based
# T1 sequence (Q96GD4 whole entry): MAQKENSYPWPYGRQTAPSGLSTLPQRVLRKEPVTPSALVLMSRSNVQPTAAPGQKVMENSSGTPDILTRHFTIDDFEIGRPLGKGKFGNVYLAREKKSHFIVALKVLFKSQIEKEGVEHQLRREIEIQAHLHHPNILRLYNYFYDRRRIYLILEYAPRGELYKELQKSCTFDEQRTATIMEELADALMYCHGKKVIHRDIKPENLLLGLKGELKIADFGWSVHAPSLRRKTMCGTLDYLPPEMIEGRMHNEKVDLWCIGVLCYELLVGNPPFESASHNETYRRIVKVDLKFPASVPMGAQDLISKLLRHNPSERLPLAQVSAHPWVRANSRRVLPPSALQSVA
inhibition (Aurora kinase B [1]) [%],IC50 (Aurora kinase A) [µM],SMILES,also measured
12.8,,CC(=O)Nc1ccc2c(c1)/C(=C/c1[nH]c3c(c1CCC(=O)O)C(=O)CCC3)C(=O)N2,
,0.117,CNC(=O)CCc1c(/C=C2\C(=O)Nc3ccc(NS(=O)(=O)c4ccccc4)cc32)[nH]c2c1C(=O)CCC2,IC50 (Aurora kinase B [2]): 0.32 µM; IC50 (HCT-116 [3]): > 10 µM; IC50 (HeLa): > 10 µM; IC50 (HT-29): > 10 µM
17.3,0.456,CC1(C)CC(=O)c2c([nH]c(/C=C3\C(=O)Nc4ccc(F)cc43)c2CCC(=O)O)C1,
17.5,0.362,CC(=O)c1c(C)[nH]c(/C=C2\C(=O)Nc3ccc(F)cc32)c1CCC(=O)O,
,0.563,O=C1Nc2ccc(S(=O)(=O)N3CCc4ccccc43)cc2/C1=C/c1[nH]c2c(c1CCC(=O)N1CCOCC1)C(=O)CCC2,IC50 (Aurora kinase B [2]): 3.15 µM; IC50 (HCT-116 [3]): > 10 µM; IC50 (HeLa): > 10 µM; IC50 (HT-29): > 10 µM
13,,O=C(O)CCc1c(/C=C2\C(=O)Nc3ccccc32)[nH]c2c1C(=O)CCC2,
7.3,0.034,CCS(=O)(=O)Nc1ccc2c(c1)/C(=C/c1[nH]c3c(c1CCC(=O)O)C(=O)CCC3)C(=O)N2,
3,,CCOC(=O)CCc1c(/C=C2\C(=O)Nc3ccc(F)cc32)[nH]c2c1C(=O)CCC2,
34.1,,NS(=O)(=O)c1ccc2c(c1)/C(=C/c1[nH]c3c(c1CCC(=O)O)C(=O)CCC3)C(=O)N2,
7,0.057,CCS(=O)(=O)c1ccc2c(c1)/C(=C/c1[nH]c3c(c1CCC(=O)O)C(=O)CCC3)C(=O)N2,
5.1,,COc1ccc(-c2ccc3c(c2)/C(=C/c2[nH]c4c(c2CCC(=O)O)C(=O)CCC4)C(=O)N3)cc1OC,
32.5,0.039,C=CCS(=O)(=O)c1ccc2c(c1)/C(=C/c1[nH]c3c(c1CCC(=O)O)C(=O)CCC3)C(=O)N2,
2.6,,CNS(=O)(=O)c1ccc2c(c1)/C(=C/c1[nH]c3c(c1CCC(=O)O)C(=O)CCC3)C(=O)N2,
,0.218,O=C1Nc2ccc(NS(=O)(=O)c3ccccc3)cc2/C1=C/c1[nH]c2c(c1CCC(=O)N1CCCC1)C(=O)CCC2,IC50 (Aurora kinase B [2]): 0.719 µM; IC50 (HCT-116 [3]): > 10 µM; IC50 (HeLa): > 10 µM; IC50 (HT-29): > 10 µM
,0.007,O=C(O)CCc1c(/C=C2\C(=O)Nc3ccc(S(=O)(=O)N4CCCC4)cc32)[nH]c2c1C(=O)CCC2,
2,,O=C(O)CCc1c(/C=C2\C(=O)Nc3ccc(F)cc32)[nH]c2c1C(=O)CCCC2,inhibition [4]: 45.5%
,2.34,CCN(CC)CCCc1c(/C=C2\C(=O)Nc3ccc(S(=O)(=O)N4CCc5ccccc54)cc32)[nH]c2c1C(=O)CCC2,IC50 (Aurora kinase B [2]): 0.616 µM; IC50 (HCT-116 [3]): 2.66 µM; IC50 (HeLa): 3.27 µM; IC50 (HT-29): 2.13 µM

inhibition (Aurora kinase B [1]) [%],IC50 (Aurora kinase A) [µM],SMILES,also measured
,2.45,CCN(CC)CCCc1c(/C=C2\C(=O)Nc3ccc(NS(=O)(=O)c4ccccc4)cc32)[nH]c2c1C(=O)CCC2,IC50 (Aurora kinase B [2]): 0.356 µM; IC50 (HCT-116 [3]): > 10 µM; IC50 (HeLa): 8.61 µM; IC50 (HT-29): > 10 µM
21,,O=C(O)CCc1c(/C=C2\C(=O)Nc3ccc(NS(=O)(=O)c4ccc5ccccc5c4)cc32)[nH]c2c1C(=O)CCC2,inhibition [4]: 40.6%
,0.008,O=C(O)CCc1c(/C=C2\C(=O)Nc3ccc(S(=O)(=O)N4CCc5ccccc54)cc32)[nH]c2c1C(=O)CCC2,
11.6,,O=C(O)CCc1c(/C=C2\C(=O)Nc3ccc(F)cc32)[nH]c2c1C(=O)CCC2,
2.3,,CCOC(=O)CCc1c(/C=C2\C(=O)Nc3ccccc32)[nH]c2c1C(=O)CCC2,
,2.17,O=C1Nc2ccc(NS(=O)(=O)c3ccccc3)cc2/C1=C/c1[nH]c2c(c1CCCN1CCCC1)C(=O)CCC2,IC50 (Aurora kinase B [2]): 0.31 µM; IC50 (HCT-116 [3]): > 10 µM; IC50 (HeLa): > 10 µM; IC50 (HT-29): 3.32 µM
,0.012,O=C(O)CCc1c(/C=C2\C(=O)Nc3ccc(NS(=O)(=O)c4ccccc4)cc32)[nH]c2c1C(=O)CCC2,IC50 (HCT-116 [3]): > 10 µM; IC50 (HCT-116 [5]): > 10 µM; IC50 (HT-29): > 10 µM
14.2,0.72,O=C(O)CCc1c(/C=C2\C(=O)Nc3ccc(NC(=O)c4ccccc4)cc32)[nH]c2c1C(=O)CCC2,
,2.27,CN(C)CCCc1c(/C=C2\C(=O)Nc3ccc(S(=O)(=O)N4CCc5ccccc54)cc32)[nH]c2c1C(=O)CCC2,IC50 (Aurora kinase B [2]): 0.312 µM; IC50 (HCT-116 [3]): 0.9 µM; IC50 (HeLa): 1.62 µM; IC50 (HT-29): 0.75 µM
,0.021,CN(C)S(=O)(=O)c1ccc2c(c1)/C(=C/c1[nH]c3c(c1CCC(=O)O)C(=O)CCC3)C(=O)N2,
,0.281,O=C1Nc2ccc(NS(=O)(=O)c3ccccc3)cc2/C1=C/c1[nH]c2c(c1CCC(=O)N1CCOCC1)C(=O)CCC2,IC50 (Aurora kinase B [2]): 0.906 µM; IC50 (HCT-116 [3]): > 10 µM; IC50 (HeLa): > 10 µM; IC50 (HT-29): > 10 µM
6.8,,O=C(O)CCc1c(/C=C2\C(=O)Nc3ccc(Br)cc32)[nH]c2c1C(=O)CCC2,
3.4,,O=C(O)CCc1c(/C=C2\C(=O)Nc3ccc([N+](=O)[O-])cc32)[nH]c2c1C(=O)CCC2,
15.5,,O=C(O)CCc1c(/C=C2\C(=O)Nc3ccc(S(=O)(=O)Cc4ccc(F)cc4)cc32)[nH]c2c1C(=O)CCC2,
11.2,,O=C(O)CCc1c(/C=C2\C(=O)Nc3ccc(S(=O)(=O)Cc4ccccc4)cc32)[nH]c2c1C(=O)CCC2,
12.4,,COc1cc(-c2ccc3c(c2)/C(=C/c2[nH]c4c(c2CCC(=O)O)C(=O)CCC4)C(=O)N3)ccc1O,
